Measured values: patent US12077534B2, “Aza-heterobicyclic inhibitors of MAT2A and methods of use for treating cancer” (Les Laboratoires Servier SAS, priority 2018, dated 2024)
Read-outs that look alike come from different tables or passages of the source.

Columns and labels:
HCT116 MTAP+/+ = test: Inhibition of cellular proliferation (Cell Titer Glo), HCT116 MTAP+/+; assay type: cell-based; conditions: Homo sapiens, HCT-116, 96 h, 4 days, read-out: 4 Day Relative Growth Inhibition (MTAP +/+)
Method: (§1) Test compound impact on cancer cell growth was assessed by treating cancer cells with compound for 4 days and then measuring proliferation using an ATP-based cell proliferation readout (Cell Titer Glo, Promega Corporation).
(§2) In a typical assay an isogenic pair of HCT116 human colon carcinoma cell lines which vary only in MTAP deletion status (HCT116 MTAP+/+ and HCT116 MTAP−/−) were plated in 96-well dishes at appropriate cell density. Following 24 hours, cells were then treated with the candidate MAT2A inhibitor. Prior to addition to cells, the compound was first serially diluted in 100% DMSO, typically as a 3-fold serial dilution starting at 500× top dose with 10 dose points including DMSO only control. Compound was then transferred to a working stock plate in cell culture media by adding 5 μL of compound in DMSO to 495 μL of cell culture media. This working stock was then added to cells via a further 5-fold dilution, by adding 25 μL of working stock to 100 μL of cells in culture media. Following compound addition, cells were incubated at 37° C./5% CO2 for 4 days.
(§3) To measure inhibition of cellular proliferation, cells were allowed to equilibrate to room temperature for 30 minutes, and were then treated with 125 μL of Cell Titer Glo reagent. The plate was then covered with aluminum foil and shaken for 15 minutes to ensure complete mixing and full cell lysis. Luminescent signal was then measured using a plate-based luminometer Veritas version 1.9.2 using ATP standard curve to confirm assay reproducibility from run to run. This luminescence measure was converted to a proliferation index by subtracting from each data point the ATP luminescence signal measured from a bank (no cells) well and dividing by the ATP luminescence signal measured in 0.2% DMSO control well adjusted for signal in blank well. Compound activity was then represented as a percentage change in proliferation relative to a within-plate DMSO control against log 10 of compound concentration in molar (M) units.

HCT116 MTAP−/− = test: Inhibition of cellular proliferation (Cell Titer Glo), HCT116 MTAP-/-; assay type: cell-based; conditions: Homo sapiens, HCT-116, 96 h, 4 days, read-out: 4 Day Relative Growth Inhibition (MTAP −/−)
Method: as §1, §2, §3

[1] = test system: MAT2A activity (SAM) in HCT116 cells with deleted MTAP gene; test: Cellular assay of target engagement (SAM) by LC-MS/MS; assay type: cell-based; conditions: Homo sapiens, read-out: Cell 72 h SAM Inhibition (MTAP −/−)
Method: Measurement of MAT2A activity in cells was made by direct quantitation of the abundance of the product of its enzymatic activity, SAM. Cancer cells were treated with candidate MAT2A inhibitors for a suitable incubation period, and the cells were then lysed using a reagent which quenched any further enzyme activity. Soluble metabolites including SAM were collected and SAM itself was directly measured from the lysate using quantitative LC-MS/MS.
A typical assay was performed using an HCT116 human colon carcinoma cell line which was genetically engineered to delete the MTAP gene (commercially available from Horizon Discovery). This cell line was utilized because it was determined that loss of the MTAP gene predicts sensitivity to MAT2A inhibitors. Cells were plated in 96-well dishes at appropriate cell density. Following 24 hours, cells were then treated with the candidate MAT2A inhibitor. Prior to addition to cells, the compound was first serially diluted in 100% DMSO, typically as a 3-fold serial dilution starting at 500× top dose with 10 dose points including DMSO only control. Compound was then transferred to a working stock plate in cell culture media by adding 5 μL of compound in DMSO to 495 μL of cell culture media. This working stock was then added to cells via a further 5-fold dilution, by adding 25 μL of working stock to 100 μL of cells in culture media. Following compound addition, cells were incubated at 37° C./5% CO2 for 72 hrs.
To quantitate SAM levels following compound treatment, cells were gently washed once in ammonium carbonate buffer (75 mM at pH 7.4), placed on dry ice, and lysed with metabolite extraction buffer (80% cold methanol and 20% water (v/v) with acetic acid at 1M final concentration with 200 ng/mL deuterated d3-SAM as internal control). Following centrifugation at 4° C. at 3,200 rpm for 30 minutes, the supernatant was collected and stored at −80° C. until analysis by Liquid Chromatography with tandem Mass Spectrometry (LC-MS/MS). LC-MS/MS analysis was performed using an API6500 Mass Spectrometer (Sciex, Framingham, MA, USA) operating in positive ion spray mode and equipped with a Waters UPLC Acquity (Waters, Milford, MA, USA) BEH Amide column. Multiple Reaction Monitoring data was acquired for SAM and the d3-SAM standard, using a mass transition pair at m/z 399.2→250.1 and 402.2→250.1, respectively. In a typical LC-MS/MS analysis, the initial flow rate was 0.5 ml/min of 25% mobile phase A (acetonitrile and water at 5:95 (v/v) with 1% formic acid and 10 mM ammonium acetate) and 75% mobile phase B (acetonitrile and water at 95:5 (v/v) with 1% formic acid and 10 mM ammonium acetate), 0.2-0.5 minutes with 75%-35% mobile phase B, 25%-65% mobile phase A, at 0.5 min 65% mobile phase A and 35% mobile phase B, 1.0-1.1 minutes with 35%-75% mobile phase B, 65%-25% mobile phase A, at 1.1 min 25% mobile phase A and 75% mobile phase B with a total run time of 1.5 minutes.

MAT2A homodimer = biological target: T1, MAT2A homodimer (Homo sapiens, UniProt P31153); test: MAT2A biochemical assay (phosphate release, PiColorLock Gold); conditions: recombinant MAT2A homodimer, 60 min pre-incubation, 25° C.; read-out: Enzyme Inhibition
T1 construct: inferred from Ni sepharose purification and imidazole elution; made in house; host or cells: SF9 insect cells, recombinant baculovirus (Bac to Bac, pFASTBAC1)
T1 sequence (P31153 whole entry): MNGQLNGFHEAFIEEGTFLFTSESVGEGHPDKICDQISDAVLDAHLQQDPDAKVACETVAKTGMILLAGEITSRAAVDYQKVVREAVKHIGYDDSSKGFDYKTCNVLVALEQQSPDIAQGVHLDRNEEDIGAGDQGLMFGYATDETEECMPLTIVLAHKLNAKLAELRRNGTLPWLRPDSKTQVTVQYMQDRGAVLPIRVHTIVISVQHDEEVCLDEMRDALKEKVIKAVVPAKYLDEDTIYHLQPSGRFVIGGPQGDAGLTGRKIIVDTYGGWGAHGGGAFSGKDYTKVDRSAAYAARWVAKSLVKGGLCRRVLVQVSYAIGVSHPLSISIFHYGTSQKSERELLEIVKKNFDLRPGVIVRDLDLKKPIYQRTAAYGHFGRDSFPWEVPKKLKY
Method: Mat2A protein was expressed by recombinant baculovirus in SF9 infected cells using the Bac to Bac system cloned into the pFASTBAC1 vector (Invitrogen, Carlsbad, CA). Recombinant MAT2A was isolated from the cell lysate of 150 g of infected cells using HP Ni sepharose column chromatography. Recombinant MAT2A homodimer was eluted with 250 and 500 mM imidazole, and fractions containing MAT2A were identified by sodium dodecyl sulfate polyacrylamide gel electrophoresis and pooled.
For determination of the inhibitory potency of compounds against the MAT2A homodimer, protein was diluted to 4 μg/mL in assay buffer (50 mM Tris, pH 8.0, 50 mM KCl, 15 mM MgCl2, 0.3 mM EDTA, 0.005% [w/v] bovine serum albumin [BSA]). Test compound was prepared in 100% dimethyl sulfoxide (DMSO) at 50× the desired final concentration. A 1 μL volume of compound dilution was added to 40 μL of enzyme dilution and the mixture was allowed to equilibrate for 60 minutes at 25° C. The enzymatic assay was initiated by the addition of 10 μL of substrate mix (500 μM ATP, pH 7.0, 400 μM L-methionine in 1× assay buffer), and the mixture was incubated for a further 60 minutes at 25° C. The reaction was halted and the liberated phosphate released by the enzyme in stoichiometric amounts by the production of S-adenosyl methionine (SAM) was measured using the PiColorLock Gold kit (Innova Biosciences, UK). Absolute product amounts were determined by comparison to a standard curve of potassium phosphate buffer, pH 8.0.

[2] = HCT-116, HCT116 MTAP −/−, 72 hrs

SMILES	IC50 (HCT116 MTAP+/+) [nM]	IC50 (HCT116 MTAP−/−) [nM]	IC50 [1, 2] [nM]	IC50 (MAT2A homodimer) [nM]	IC50 ([1]; HCT-116, 72 h) [nM]
Cn1cc2cc(-n3nc4ccc(OCC(F)F)nc4c(-c4ccccc4)c3=O)ccc2n1 [Example 133]	≥ 1000	100 to 1000	< 100	< 100	–
Cn1cc2cc(-n3nc4ccc(OCC(F)F)nc4c(-c4ccncc4)c3=O)ccc2n1 [Example 134]	≥ 1000	≥ 1000	100 to 1000	< 100	–
CCOc1ccc2nn(-c3ccc(OC)cc3)c(=O)c(-c3ccc(OC(F)F)cc3)c2n1 [Example 135]	≥ 1000	100 to 1000	< 100	< 100	–
CCOc1ccc2nn(-c3ccc(OC)cc3)c(=O)c(-c3ccc(OC(F)(F)F)nc3)c2n1 [Example 136]	≥ 1000	100 to 1000	100 to 1000	< 100	–
Cn1cc2cc(-n3nc4ccc(OCC5CC5)nc4c(-c4ccc(OC(F)F)cc4)c3=O)ccc2n1 [Example 137]	≥ 1000	< 100	< 100	< 100	–
CC(C)Oc1ccc2nn(-c3ccc4nn(C)cc4c3)c(=O)c(-c3ccc(OC(F)F)cc3)c2n1 [Example 138]	≥ 1000	< 100	< 100	< 100	–
[2H]C([2H])([2H])Oc1ccc(-c2c(=O)n(-c3ccc4nn(C)cc4c3)nc3ccc(OCC(F)F)nc23)cn1 [Example 139]	100 to 1000	< 100	< 100	< 100	–
Cn1cc2cc(-n3nc4ccc(OCC(F)F)nc4c(-c4cccc(Cl)c4)c3=O)ccc2n1 [Example 140]	≥ 1000	< 100	100 to 1000	< 100	–
CC(C)COc1ccc2nn(-c3ccc4nn(C)cc4c3)c(=O)c(-c3ccc(OC(F)F)cc3)c2n1 [Example 141]	≥ 1000	100 to 1000	< 100	< 100	–
Cn1cc2cc(-n3nc4c(COC5CCCCO5)cc(OCC(F)F)nc4c(-c4ccc(OC(F)F)cc4)c3=O)ccc2n1 (stereo not drawn) [Example 142, 6-(2,2-difluoroethoxy)-4-(4-(difluoromethoxy)phenyl)-2-(2-methyl-2H-indazol-5-yl)-8-(((tetrahydro-2H-pyran-2-yl)oxy)methyl)pyrido[3,2-c]pyridazin-3(2H)-one]	≥ 1000	100 to 1000	–	< 100	100 to 1000
O=c1c(-c2ccc(Cl)cc2)c2nc(OCC(F)F)ccc2nn1-c1ccc2ncsc2c1 [Example 143]	≥ 1000	< 100	< 100	< 100	–
COc1ccc(-c2c(=O)n(-c3ccc4ncsc4c3)nc3ccc(OCC(F)F)nc23)cc1 [Example 144]	≥ 1000	< 100	< 100	< 100	–
CCOc1ccc2nn(-c3ccc4ncsc4c3)c(=O)c(-c3ccc(OC(F)F)cc3)c2n1 [Example 145]	≥ 1000	< 100	< 100	< 100	–
CC(C)Oc1ccc2nn(-c3ccc4ncsc4c3)c(=O)c(-c3ccc(OC(F)F)cc3)c2n1 [Example 146]	≥ 1000	< 100	< 100	< 100	–
O=c1c(-c2ccc(C3CC3)nc2)c2nc(OCC(F)F)ccc2nn1-c1ccc2ncsc2c1 [Example 147]	≥ 1000	100 to 1000	100 to 1000	< 100	–
O=c1c(-c2ccc(OC(F)F)nc2)c2nc(OCC(F)F)ccc2nn1-c1ccc2ncsc2c1 [Example 148]	≥ 1000	100 to 1000	100 to 1000	< 100	–
Cn1cc2cc(-n3nc4ccc(OCC(F)F)nc4c(C4=CCC(O)CC4)c3=O)ccc2n1 (stereo not drawn) [Example 149]	≥ 1000	100 to 1000	< 100	< 100	–
Cn1cc2cc(-n3nc4ccc(OCC(F)F)nc4c(-c4ccc5[nH]ccc5c4)c3=O)ccc2n1 [Example 150]	≥ 1000	< 100	< 100	< 100	–
[2H]C([2H])([2H])Oc1ccc(-c2c(=O)n(-c3ccc4ncsc4c3)nc3ccc(OCC(F)F)nc23)cc1 [Example 151]	≥ 1000	< 100	< 100	< 100	–
COC1CC=C(c2c(=O)n(-c3ccc4nn(C)cc4c3)nc3ccc(OCC(F)F)nc23)CC1 (stereo not drawn) [Example 152]	100 to 1000	< 100	< 100	< 100	–
Cn1cc2cc(-n3nc4ccc(OCC(F)F)nc4c(-c4ccn[nH]4)c3=O)ccc2n1 [Example 153]	≥ 1000	≥ 1000	> 1000	100 to 1000	–
Cn1cc2cc(-n3nc4ccc(NCC(F)(F)F)nc4c(-c4ccc(Cl)cc4)c3=O)ccc2n1 [Example 154]	≥ 1000	< 100	< 100	< 100	–
Cn1cc2cc(-n3nc4ccc(NC5CC5)nc4c(-c4ccc(Cl)cc4)c3=O)ccc2n1 [Example 155]	≥ 1000	< 100	< 100	< 100	–
Cn1cc2cc(-n3nc4ccc(NCC(F)F)nc4c(-c4ccc(Cl)cc4)c3=O)ccc2n1 [Example 156]	≥ 1000	< 100	< 100	< 100	–
